{"source": "patent US20250333424A1", "about": "“ANTIVIRAL COMPOUNDS” (Gilead Sciences, Inc., priority 2024, published 2025)"}
{"tested_on": "monocytic THP1 cells infected with HIV VSV-G pseudotyped GFP-NEF reporter virus", "test": "cells", "assay_type": "cell-based", "conditions": "Human immunodeficiency virus 1, THP-1, 24 h", "units": {"EC50": "nM"}}
{"smiles": "Cc1cc(/C=C/C#N)cc(C)c1Oc1nc(NC23CC(C#N)(C2)C3)nc2noc(C)c12", "note": "[Compound 111, (E)-3-((4-(4-(2-cyanovinyl)-2,6-dimethylphenoxy)-3-methylisoxazolo[3,4-d]pyrimidin-6-yl)amino)bicyclo[1.1.1]pentane-1-carbonitrile]", "EC50": 30.6}
{"smiles": "Cc1cc(/C=C/C#N)cc(C)c1Oc1nc(NC23CC(C#N)(C2)C3)nc2c(C)nn(C)c12", "note": "[Compound 121]", "EC50": 53.2}
{"smiles": "COCCn1cc2c(Oc3c(C)cc(/C=C/C#N)cc3C)nc(NC34CC(C#N)(C3)C4)nc2n1", "note": "[Compound 123, 3-[[4-[4-[(E)-2-cyanovinyl]-2,6-dimethyl-phenoxy]-2-(2-methoxyethyl)pyrazolo[3,4-d]pyrimidin-6-yl]amino]bicyclo[1.1.1]pentane-1-carbonitrile]", "EC50": 59.8}
{"smiles": "Cc1cc(/C=C/C#N)cc(C)c1Oc1nc(NC23CC(C#N)(C2)C3)nc2c1c(N)nn2C", "note": "[Compound 125, 3-[[3-amino-4-[4-[(E)-2-cyanovinyl]-2,6-dimethyl-phenoxy]-1-methyl-pyrazolo[3,4-d]pyrimidin-6-yl]amino]bicyclo[1.1.1]pentane-1-carbonitrile]", "EC50": 111}
{"smiles": "Cc1cc(/C=C/C#N)cc(C)c1Oc1nc(NC23CC(C#N)(C2)C3)nc2[nH]nc(C(C)C)c12", "note": "[Compound 126, 3-[[4-[4-[(E)-2-cyanovinyl]-2,6-dimethyl-phenoxy]-3-isopropyl-1H-pyrazolo[3,4-d]pyrimidin-6-yl]amino]bicyclo[1.1.1]pentane-1-carbonitrile]", "EC50": 119}
{"smiles": "Cc1cc(/C=C/C#N)cc(C)c1Oc1nc(NC23CC(C#N)(C2)C3)nc2nn(C3CCOCC3)cc12", "note": "[Compound 127, 3-[[4-[4-[(E)-2-cyanovinyl]-2,6-dimethyl-phenoxy]-2-tetrahydropyran-4-yl-pyrazolo[3,4-d]pyrimidin-6-yl]amino]bicyclo[11.1.1]pentane-1-carbonitrile]", "EC50": 149}
{"smiles": "Cc1cc(/C=C/C#N)cc(C)c1Oc1nc(NC23CC(C#N)(C2)C3)nc2c1CNC2", "note": "[Compound 135, (E)-3-((4-(4-(2-cyanovinyl)-2,6-dimethylphenoxy)-6,7-dihydro-5H-pyrrolo[3,4-d]pyrimidin-2-yl)amino)bicyclo[1.1.1]pentane-1-carbonitrile]", "EC50": 275}
{"smiles": "Cc1cc(/C=C/C#N)cc(C)c1Oc1nc(NC23CC(C#N)(C2)C3)nc2c1C(C)NC2=O", "note": "(stereo not shown) [Compound 136, (E)-3-((4-(4-(2-cyanovinyl)-2,6-dimethylphenoxy)-5-methyl-7-oxo-6,7-dihydro-5H-pyrrolo[3,4-d]pyrimidin-2-yl)amino)bicyclo[1.1.1]pentane-1-carbonitrile]", "EC50": 15}
{"smiles": "Cc1cc(/C=C/C#N)cc(C)c1Oc1nc(NC23CC(C#N)(C2)C3)nc2c1[C@@H](C)NC2=O", "note": "[Compound 137, 3-[[(5R)-4-[4-[(E)-2-cyanovinyl]-2,6-dimethyl-phenoxy]-5-methyl-7-oxo-5,6-dihydropyrrolo[3,4-d]pyrimidin-2-yl]amino]bicyclo[1.1.1]pentane-1-carbonitrile]", "EC50": 6.9}
{"smiles": "Cc1cc(/C=C/C#N)cc(C)c1Oc1nc(NC23CC(C#N)(C2)C3)nc2c1[C@H](C)NC2=O", "note": "[Compound 138, 3-[[(5S)-4-[4-[(E)-2-cyanovinyl]-2,6-dimethyl-phenoxy]-5-methyl-7-oxo-5,6-dihydropyrrolo[3,4-d]pyrimidin-2-yl]amino]bicyclo[1.1.1]pentane-1-carbonitrile]", "EC50": 18.3}
{"smiles": "C=C1NC(=O)c2nc(NC34CC(C#N)(C3)C4)nc(Oc3c(C)cc(/C=C/C#N)cc3C)c21", "note": "[Compound 139, (E)-3-((4-(4-(2-cyanovinyl)-2,6-dimethylphenoxy)-5-methylene-7-oxo-6,7-dihydro-5H-pyrrolo[3,4-d]pyrimidin-2-yl)amino)bicyclo[1.1.1]pentane-1-carbonitrile]", "EC50": 8.27}
{"smiles": "Cc1cc(/C=C/C#N)cc(C)c1Oc1nc(NC23CC(C#N)(C2)C3)nc2c1C(C)N(C)C2=O", "note": "(stereo not shown) [Compound 140, (E)-3-((4-(4-(2-cyanovinyl)-2,6-dimethylphenoxy)-5,6-dimethyl-7-oxo-6,7-dihydro-5H-pyrrolo[3,4-d]pyrimidin-2-yl)amino)bicyclo[1.1.1]pentane-1-carbonitrile]", "EC50": 14.3}
{"smiles": "Cc1cc(/C=C/C#N)cc(C)c1Oc1nc(NC23CC(C#N)(C2)C3)nc2c1C(C)(O)N(C)C2=O", "note": "(stereo not shown) [Compound 141, (E)-3-((4-(4-(2-cyanovinyl)-2,6-dimethylphenoxy)-5-hydroxy-5,6-dimethyl-7-oxo-6,7-dihydro-5H-pyrrolo[3,4-d]pyrimidin-2-yl)amino)bicyclo[1.1.1]pentane-1-carbonitrile]", "EC50": 73}
{"smiles": "CCn1cc2c(Oc3c(C)cc(/C=C/C#N)cc3C)nc(NC34CC(C#N)(C3)C4)nc2n1", "note": "[Compound 143, 3-[[4-[4-[(E)-2-cyanovinyl]-2,6-dimethyl-phenoxy]-2-ethyl-pyrazolo[3,4-d]pyrimidin-6-yl]amino]bicyclo[1.1.1]pentane-1-carbonitrile]", "EC50": 58.5}
{"smiles": "Cc1cc(/C=C/C#N)cc(C)c1Oc1nc(NC23CC(C#N)(C2)C3)nc2nn(C3CC3)cc12", "note": "[Compound 144, (E)-3-((4-(4-(2-cyanovinyl)-2,6-dimethylphenoxy)-2-cyclopropyl-2H-pyrazolo[3,4-d]pyrimidin-6-yl)amino)bicyclo[1.1.1]pentane-1-carbonitrile]", "EC50": 81}
{"smiles": "Cc1cc(/C=C/C#N)cc(C)c1Oc1nc(NC23CC(C#N)(C2)C3)nc2nn(CC3CC3)cc12", "note": "[Compound 145, (E)-3-((4-(4-(2-cyanovinyl)-2,6-dimethylphenoxy)-2-(cyclopropylmethyl)-2H-pyrazolo[3,4-d]pyrimidin-6-yl)amino)bicyclo[1.1.1]pentane-1-carbonitrile]", "EC50": 89.1}
{"smiles": "COc1ccc(CN2C(=O)C(C)(C)c3c(Oc4c(C)cc(/C=C/C#N)cc4C)nc(NC45CC(C#N)(C4)C5)nc32)cc1", "note": "[Compound 146, (E)-3-((4-(4-(2-cyanovinyl)-2,6-dimethylphenoxy)-7-(4-methoxybenzyl)-5,5-dimethyl-6-oxo-6,7-dihydro-5H-pyrrolo[2,3-d]pyrimidin-2-yl)amino)bicyclo[1.1.1]pentane-1-carbonitrile]", "EC50": 35.4}
{"smiles": "Cc1cc(/C=C/C#N)cc(C)c1Oc1nc(NC23CC(C#N)(C2)C3)nc2c1CNC2=O", "note": "[Compound 153, (E)-3-((4-(4-(2-cyanovinyl)-2,6-dimethylphenoxy)-7-oxo-6,7-dihydro-5H-pyrrolo[3,4-d]pyrimidin-2-yl)amino)bicyclo[1.1.1]pentane-1-carbonitrile]", "EC50": 27.5}
{"smiles": "Cc1cc(/C=C/C#N)cc(C)c1Oc1nc(NC23CC(C#N)(C2)C3)nc2nc(C3CCOCC3)n(C(F)F)c12", "note": "[Compound 176, (E)-3-((6-(4-(2-cyanovinyl)-2,6-dimethylphenoxy)-7-(difluoromethyl)-8-(tetrahydro-2H-pyran-4-yl)-7H-purin-2-yl)amino)bicyclo[1.1.1]pentane-1-carbonitrile]", "EC50": 45}
{"smiles": "Cc1cc(/C=C/C#N)cc(C)c1Oc1nc(NC23CC(C#N)(C2)C3)nc2nc(-c3ccn(C)n3)n(C(F)F)c12", "note": "[Compound 177, (E)-3-((6-(4-(2-cyanovinyl)-2,6-dimethylphenoxy)-7-(difluoromethyl)-8-(1-methyl-1H-pyrazol-3-yl)-7H-purin-2-yl)amino)bicyclo[1.1.1]pentane-1-carbonitrile]", "EC50": 45.3}
{"smiles": "Cc1cc(/C=C/C#N)cc(C)c1Oc1nc(NC23CC(C#N)(C2)C3)nc2nc(C(F)F)n(C(F)F)c12", "note": "[Compound 178, (E)-3-((6-(4-(2-cyanovinyl)-2,6-dimethylphenoxy)-7,8-bis(difluoromethyl)-7H-purin-2-yl)amino)bicyclo[1.1.1]pentane-1-carbonitrile]", "EC50": 25.7}
{"smiles": "Cc1cc(/C=C/C#N)cc(C)c1Oc1nc(NC23CC(C#N)(C2)C3)nc2nc(C(C)O)n(C(F)F)c12", "note": "(stereo not shown) [Compound 179, (E)-3-((6-(4-(2-cyanovinyl)-2,6-dimethylphenoxy)-7-(difluoromethyl)-8-(1-hydroxyethyl)-7H-purin-2-yl)amino)bicyclo[1.1.1]pentane-1-carbonitrile]", "EC50": 18.1}
{"smiles": "Cc1cc(/C=C/C#N)cc(C)c1Oc1nc(NC23CC(C#N)(C2)C3)nc2c1[C@@H](C)N(C1CC1)C2=O", "note": "[Compound 180, (R,E)-3-((4-(4-(2-cyanovinyl)-2,6-dimethylphenoxy)-6-cyclopropyl-5-methyl-7-oxo-6,7-dihydro-5H-pyrrolo[3,4-d]pyrimidin-2-yl)amino)bicyclo[1.1.1]pentane-1-carbonitrile]", "EC50": 92.9}
{"smiles": "Cc1cc(/C=C/C#N)cc(C)c1Oc1nc(NC23CC(C#N)(C2)C3)nc2c1[C@H](C)N(C1CC1)C2=O", "note": "[Compound 181, (S,E)-3-((4-(4-(2-cyanovinyl)-2,6-dimethylphenoxy)-6-cyclopropyl-5-methyl-7-oxo-6,7-dihydro-5H-pyrrolo[3,4-d]pyrimidin-2-yl)amino)bicyclo[1.1.1]pentane-1-carbonitrile]", "EC50": 20.5}
{"smiles": "Cc1cc(/C=C/C#N)cc(C)c1Oc1nc(NC23CC(C#N)(C2)C3)nc2nc3n(c12)CCO3", "note": "[Compound 184, (E)-3-((4-(4-(2-cyanovinyl)-2,6-dimethylphenoxy)-6,7-dihydrooxazolo[2,3-f]purin-2-yl)amino)bicyclo[1.1.1]pentane-1-carbonitrile]", "EC50": 36.5}
{"smiles": "Cc1cc(/C=C/C#N)cc(C)c1Oc1nc(NC23CC(C#N)(C2)C3)nc2nc3n(c12)C[C@H](C)CO3", "note": "[Compound 185, (S,E)-3-((4-(4-(2-cyanovinyl)-2,6-dimethylphenoxy)-7-methyl-7,8-dihydro-6H-[1,3]oxazino[2,3-f]purin-2-yl)amino)bicyclo[1.1.1]pentane-1-carbonitrile]", "EC50": 22.3}
{"smiles": "Cc1cc(/C=C/C#N)cc(C)c1Oc1nc(NC23CC(C#N)(C2)C3)nc2nc3n(c12)C[C@@H](C)CO3", "note": "[Compound 186, (R,E)-3-((4-(4-(2-cyanovinyl)-2,6-dimethylphenoxy)-7-methyl-7,8-dihydro-6H-[1,3]oxazino[2,3-f]purin-2-yl)amino)bicyclo[1.1.1]pentane-1-carbonitrile]", "EC50": 92}
{"smiles": "Cc1cc(/C=C/C#N)cc(C)c1Oc1nc(NC23CC(C#N)(C2)C3)nc2nc3n(c12)CC1(CC1)CO3", "note": "[Compound 187, (E)-3-((4′-(4-(2-cyanovinyl)-2,6-dimethylphenoxy)-6′H,8′H-spiro[cyclopropane-1,7′-[1,3]oxazino[2,3-f]purin]-2′-yl)amino)bicyclo[1.1.1]pentane-1-carbonitrile]", "EC50": 36.5}
